In ChEMBL document CHEMBL5303304, “EUbOPEN Chemogenomics Library - IncuCyte” (2023):

Columns and labels:
Assay type in all cases: toxicity, cell-based
[1] = test system: HEK-293T; test: Incucyte cell viability with HEK293T; details: human, 10 µM, compound concentration 10 uM
[2] = test system: Fibroblast; test: Incucyte cell viability with human fibroblast; details: 10 µM, compound concentration 10 uM
[3] = test system: U2OS; test: Incucyte cell viability with U2OS; details: human, 10 µM, compound concentration 10 uM
Note: unitless GR value; below 1 slowed growth and below 0 cell loss.

Compound | Growth Rate ([1]; 0 h, replicate number 1) | Growth Rate ([1]; 24 h, replicate number 2) | Growth Rate ([2]; 6 h, replicate number 2) | Growth Rate ([2]; 12 h, replicate number 1) | Growth Rate ([2]; 12 h, replicate number 2) | Growth Rate ([2]; 18 h, replicate number 1) | Growth Rate ([2]; 18 h, replicate number 2) | Growth Rate ([2]; 24 h, replicate number 2) | Growth Rate ([3]; 0 h, replicate number 1) | Growth Rate ([3]; 6 h, replicate number 1) | Growth Rate ([3]; 12 h, replicate number 1) | Growth Rate ([3]; 18 h, replicate number 1) | Growth Rate ([3]; 24 h, replicate number 1) | Growth Rate ([1]; 0 h, replicate number 2) | Growth Rate ([1]; 6 h, replicate number 2) | Growth Rate ([1]; 12 h, replicate number 2) | Growth Rate ([1]; 18 h, replicate number 2) | Growth Rate ([2]; 0 h, replicate number 2) | Growth Rate ([3]; 24 h, replicate number 2) | Growth Rate ([2]; 24 h, replicate number 1) | further results
O=C(O)c1cc(-c2ccccc2)ccc1O | -0.37 | 0.94 | -0.01 | 0.95 | 0.44 | 0.96 | 0.67 | 0.79 | -0.47 | 0.63 | 0.69 | 0.88 | 0.87 | – | – | – | – | – | – | – | Growth Rate ([3]; 0 h, replicate number 2): -0.88
CC(C=CC1=C(C)CCCC1(C)C)=CC=CC(C)=CC(=O)O | 0.11 | 0.58 | 0.99 | – | 0.99 | – | – | – | 0.58 | 0.77 | 0.3 | 0.67 | 0.87 | -0.77 | 0.82 | 0.99 | 0.73 | 0.82 | 0.99 | – | Growth Rate ([1]; 18 h, replicate number 1): 0.94; Growth Rate ([1]; 24 h, replicate number 1): 0.95; Growth Rate ([3]; 0 h, replicate number 2): 0.8; Growth Rate ([3]; 6 h, replicate number 2): 0.93
CCOC(=O)Nc1ccc2c(c1)N(C(=O)CN(CC)CC)c1ccccc1CC2 | 0.65 | 0.92 | 0.43 | 0.64 | 0.75 | 0.61 | 0.53 | 0.69 | 0.1 | 0.94 | 0.75 | – | 0.89 | – | 0.81 | 0.9 | 0.97 | 0.9 | – | 0.76 | Growth Rate ([2]; 6 h, replicate number 1): 0.29
C[C@H](CCC(=O)[O-])[C@H]1CC[C@H]2[C@@H]3[C@@H](O)C[C@@H]4C[C@H](O)CC[C@]4(C)[C@H]3CC[C@]12C.[Na+] | 0.59 | 1 | 0.93 | – | 0.91 | 0.83 | 0.77 | 0.88 | -0.51 | 0.4 | 0.47 | 0.72 | – | – | – | – | – | 0.84 | – | – | Growth Rate ([2]; 6 h, replicate number 1): 0.88; Growth Rate ([3]; 0 h, replicate number 2): 0.8; Growth Rate ([3]; 12 h, replicate number 2): 1
COc1cc(O)c(C(CC(=O)N2C[C@H](C)C[C@H](C)C2)c2ccc3c(c2)OCO3)c(OC)c1 (stereo not given in full) | 0.81 | – | 1 | 0.5 | – | 0.1 | 0.88 | – | 0.96 | – | – | – | – | -0.14 | – | – | – | 0.14 | – | 0.74 | Growth Rate ([2]; 6 h, replicate number 1): -0.32; Growth Rate ([3]; 0 h, replicate number 2): 0.9
CC(=O)Nc1nc(C)c(S(=O)(=O)Nc2ccc(C(O)(C(F)(F)F)C(F)(F)F)cc2)s1 | 0.65 | 0.78 | 0.51 | 0.45 | 0.84 | 1 | 0.9 | – | -0.47 | 0.76 | 0.61 | 0.74 | 0.79 | – | – | 0.89 | 0.85 | 0.65 | – | – | Growth Rate ([1]; 6 h, replicate number 1): 0.85; Growth Rate ([1]; 12 h, replicate number 1): 0.86
C[C@@H](CO)CCC[C@@H](C)[C@H]1CC[C@H]2[C@@H]3CC=C4C[C@@H](O)CC[C@]4(C)[C@H]3CC[C@]12C | 0.34 | 1 | 0.36 | 0.57 | 0.22 | 0.33 | 0.27 | 0.25 | – | – | 0.84 | 0.88 | – | – | – | 0.79 | – | – | – | 0.6 | Growth Rate ([2]; 0 h, replicate number 1): 0.73; Growth Rate ([2]; 6 h, replicate number 1): 0.92; Growth Rate ([3]; 6 h, replicate number 2): 0.82
NC(=O)C1CCCc2c1[nH]c1ccc(Cl)cc21 (stereo not given) | 0.75 | 0.79 | – | – | 0.9 | – | – | 0.88 | 0.85 | 0.7 | 1 | 0.88 | 1 | -0.98 | 0.22 | 0.53 | 0.66 | 0.51 | 0.96 | – | Growth Rate ([3]; 0 h, replicate number 2): 0.68
CCOC(=O)c1ccc(CN(Cc2ccc(-c3cccc(S(C)(=O)=O)c3)cc2)S(=O)(=O)c2c(C)cc(C)cc2C)o1 | -0.26 | – | 0.38 | 0.59 | 0.87 | 0.86 | 0.84 | 0.87 | – | – | – | – | – | – | – | 0.98 | – | – | 0.89 | 0.99 | Growth Rate ([2]; 0 h, replicate number 1): 0.32
O=C(Cc1ccccc1[N+](=O)[O-])Nc1ccc(-c2ccc(C(O)(C(F)(F)F)C(F)(F)F)cc2F)cc1 | 0.09 | 0.74 | -0.05 | 0.45 | 0.28 | 0.13 | -0.04 | -0.14 | – | – | – | – | – | -0.97 | 0.13 | 0.64 | 0.6 | – | 0.66 | -0.02 | Growth Rate ([1]; 6 h, replicate number 1): 0.35; Growth Rate ([1]; 12 h, replicate number 1): 0.73; Growth Rate ([1]; 18 h, replicate number 1): 0.7; Growth Rate ([1]; 24 h, replicate number 1): 0.78; Growth Rate ([2]; 6 h, replicate number 1): -0.02; Growth Rate ([3]; 6 h, replicate number 2): 0.87; Growth Rate ([3]; 12 h, replicate number 2): 0.85; Growth Rate ([3]; 18 h, replicate number 2): 0.73
O=C(CNCc1cc2ccccc2[nH]1)N[C@H]1CC[C@@H](c2nc3ccccc3[nH]2)CC1 | -0.1 | 0.89 | 0.7 | 0.79 | 0.69 | 0.78 | – | – | -0.05 | 0.65 | 0.55 | 0.82 | 0.8 | -0.87 | 0.27 | 0.76 | 0.77 | 0.8 | – | 0.78 | Growth Rate ([2]; 6 h, replicate number 1): 0.9; Growth Rate ([3]; 6 h, replicate number 2): 1
CCc1ccc(-c2ncn(CC3(F)CCN(C)CC3)c2-c2ccnc3[nH]ccc23)nc1 | -0.12 | 0.69 | 0.83 | – | – | 0.78 | 0.97 | – | 0.47 | 0.66 | 0.71 | 0.85 | 0.87 | 0.98 | 0.08 | 0.35 | 0.72 | 0.42 | 0.75 | 0.93 | Growth Rate ([1]; 6 h, replicate number 1): 0; Growth Rate ([1]; 12 h, replicate number 1): 0.43; Growth Rate ([1]; 18 h, replicate number 1): 0.76; Growth Rate ([1]; 24 h, replicate number 1): 0.9; Growth Rate ([2]; 0 h, replicate number 1): 0.78; Growth Rate ([3]; 12 h, replicate number 2): 0.69; Growth Rate ([3]; 18 h, replicate number 2): 0.83
Cn1ccc(Cn2cnc(-c3ccc(F)cc3)c2-c2ccnc3[nH]ccc23)n1 | -0.47 | 0.89 | – | – | – | – | – | – | 0.48 | 0.89 | 0.89 | – | – | 0.06 | – | 0.86 | 0.98 | 0.53 | 0.89 | – | Growth Rate ([2]; 0 h, replicate number 1): 0.19; Growth Rate ([3]; 6 h, replicate number 2): 0.97; Growth Rate ([3]; 12 h, replicate number 2): 0.94; Growth Rate ([3]; 18 h, replicate number 2): 0.95
CCO[C@H](COc1ccc(C(F)(F)F)cc1)CSc1ccc(OCC(=O)[O-])c(C)c1.[Na+] | -0.25 | 0.68 | – | 0.7 | 0.87 | 0.93 | 0.97 | – | – | – | 0.94 | 0.96 | – | -0.95 | 0.55 | 0.82 | 0.72 | 0.62 | 0.78 | 0.93 | Growth Rate ([2]; 6 h, replicate number 1): 0.27; Growth Rate ([3]; 0 h, replicate number 2): 0.56; Growth Rate ([3]; 6 h, replicate number 2): 0.78; Growth Rate ([3]; 12 h, replicate number 2): 0.8; Growth Rate ([3]; 18 h, replicate number 2): 0.92
O=C(NCCS(=O)(=O)c1ccc(C(F)(F)F)cn1)c1ccc(Cl)cc1 | -0.16 | 0.79 | – | 0.61 | 0.53 | 0.55 | 0.99 | 0.73 | – | – | 0.98 | 0.96 | 0.93 | – | 0.83 | 0.73 | 0.77 | -0.73 | – | 0.9 | –
